Source: US12692261B2, “Substituted heterocyclic compounds and therapeutic uses thereof” (Bayer Aktiengesellschaft, priority 2020, dated 2026)
Where two headings read alike, the source gives them in different places.

Experiments:
[1] = target: T1, full-length human CSNK1A1 (Homo sapiens, UniProt P48729); experiment: CSNK1A1 Assay 2 (ADP-Glo, 1 μM ATP, substrate biotin-Ahx-KRRRAL-pS-VASLPGL); assay type: biochemical; settings: Table 3, read-out: CSNK1A1 Assay 2 IC50 [mol/l] (median)
T1 construct: N-terminal Glutathion-S-Transferase (GST) and full-length human CSNK1A1; purchased Life Technologies PV4174; host or cells: baculovirus infected insect cells
T1 sequence (P48729 whole entry): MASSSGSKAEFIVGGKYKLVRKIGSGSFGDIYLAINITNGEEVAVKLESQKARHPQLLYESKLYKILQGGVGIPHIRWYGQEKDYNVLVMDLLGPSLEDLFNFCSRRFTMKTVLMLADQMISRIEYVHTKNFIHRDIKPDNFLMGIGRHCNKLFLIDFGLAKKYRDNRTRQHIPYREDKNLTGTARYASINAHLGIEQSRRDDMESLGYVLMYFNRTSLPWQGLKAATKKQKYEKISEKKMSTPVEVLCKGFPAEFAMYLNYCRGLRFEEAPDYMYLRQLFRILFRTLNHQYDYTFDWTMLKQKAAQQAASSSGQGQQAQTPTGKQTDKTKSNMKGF
Outline: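 GST-tagged full-length human CSNK1A1 from baculovirus-infected insect cells (about 0.0375 ng/μL), preincubated 15 min at 22 °C with compound in HEPES pH 7.5 buffer, with 1 μM ATP and biotin-Ahx-KRRRAL-pS-VASLPGL substrate. ADP formed read by ADP-Glo luminescence.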

[2] = target: T2, wild-type Epidermal Growth Factor Receptor (EGFR) (Homo sapiens, UniProt P00533); experiment: WT-EGFR Kinase Assay (TR-FRET, 2 mM ATP); assay type: biochemical
T2 construct: a fragment of human EGFR (amino acids R669 to A1210); made in house; host or cells: Sf9 insect cells
T2 sequence (P00533 669-1210): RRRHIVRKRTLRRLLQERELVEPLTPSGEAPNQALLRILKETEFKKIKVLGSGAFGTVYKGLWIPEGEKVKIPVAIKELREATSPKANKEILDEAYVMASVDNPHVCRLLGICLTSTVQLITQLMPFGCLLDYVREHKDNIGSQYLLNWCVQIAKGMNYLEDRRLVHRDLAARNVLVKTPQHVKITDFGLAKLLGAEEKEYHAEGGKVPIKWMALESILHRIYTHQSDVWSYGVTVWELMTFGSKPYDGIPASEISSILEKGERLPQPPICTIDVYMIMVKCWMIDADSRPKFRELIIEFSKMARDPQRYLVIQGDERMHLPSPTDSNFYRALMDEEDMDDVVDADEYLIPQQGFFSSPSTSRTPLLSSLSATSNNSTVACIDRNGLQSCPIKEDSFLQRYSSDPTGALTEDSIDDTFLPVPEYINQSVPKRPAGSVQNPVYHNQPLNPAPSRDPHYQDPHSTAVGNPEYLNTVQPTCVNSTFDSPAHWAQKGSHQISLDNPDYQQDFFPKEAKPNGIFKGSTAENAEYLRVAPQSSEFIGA
Outline: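 GST-fused human EGFR fragment (R669-A1210) from Sf9 cells, typically 7.6 pg/μL, pre-incubated with compound 15 min at 22° C in Hepes pH 7.0 buffer with MgCl2, DTT and vanadate; biotinylated peptide substrate. After EDTA stop, phosphopeptide detected by TR-FRET (anti-phosphotyrosine Tb-cryptate/streptavidin-XL665), 665/620 nm emission ratio.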

[3] = EGFR Wildtyp 2 mM ATP IC50 [mol/l] (median), Table 4
[4] = read-out: EGFR Wildtyp 2 mM ATP IC50 [mol/l] (median), Table 4

Compound | IC50 [1] [nM] | IC50 [2, 3] [nM] | IC50 [2, 4] [nM]
O=C(Nc1cc(-c2[nH]c3c(OCC4CC4)ncnc3c2-c2ccccn2)ccn1)C(CC(F)F)c1ccc(F)cc1 (single isomer, unassigned) [Example 130, (2R or S)—N-{4-[4-(cyclopropylmethoxy)-7-(pyridin-2-yl)-5H-pyrrolo[3,2-d]pyrimidin-6-yl]pyridin-2-yl}-4,4-difluoro-2-(4-fluorophenyl)butanamide] | 43.7 | 6670 | 
O=C(Nc1cc(-c2[nH]c3cccnc3c2-c2ccccn2)ccn1)C(CC(F)F)c1ccc(F)cc1 (single isomer, unassigned; (+)) [Example 11, (+)-4,4-difluoro-2-(4-fluorophenyl)-N-{4-[3-(pyridin-2-yl)-1H-pyrrolo[3,2-b]pyridin-2-yl]pyridin-2-yl}butanamide] | 1.2 | > 20000 | 
O=C(Nc1cc(-c2[nH]c3cncnc3c2-c2ccccn2)ccn1)C(CC(F)F)c1ccc(F)cc1 (single isomer, unassigned; (+)) [Example 15, (+)-4,4-difluoro-2-(4-fluorophenyl)-N-{4-[7-(pyridin-2-yl)-5H-pyrrolo[3,2-d]pyrimidin-6-yl]pyridin-2-yl}butanamide] | 1.32 |  | > 20000
O=C(Nc1cc(-c2[nH]c3cc(F)cnc3c2-c2ccccn2)ccn1)C(CC(F)F)c1ccc(F)cc1 (single isomer, unassigned; (+)) [Example 17, (+)-4,4-difluoro-2-(4-fluorophenyl)-N-{4-[6-fluoro-3-(pyridin-2-yl)-1H-pyrrolo[3,2-b]pyridin-2-yl]pyridin-2-yl}butanamide] | 1.7 | > 20000 | 
O=C(Nc1cc(-c2[nH]c3cc(F)cnc3c2-c2ccccc2)ccn1)C(CC(F)F)c1ccc(F)cc1 (single isomer, unassigned; (+)) [Example 21, (+)-4,4-difluoro-2-(4-fluorophenyl)-N-[4-(6-fluoro-3-phenyl-1H-pyrrolo[3,2-b]pyridin-2-yl)pyridin-2-yl]butanamide] | 4.21 |  | > 20000
O=C(Nc1cc(-c2[nH]c3cccnc3c2-c2ccccc2)ccn1)C(CC(F)F)c1ccc(F)cc1 (single isomer, unassigned; (+)) [Example 24, (+)-4,4-difluoro-2-(4-fluorophenyl)-N-[4-(3-phenyl-1H-pyrrolo[3,2-b]pyridin-2-yl)pyridin-2-yl]butanamide] | 1.62 |  | > 20000
O=C(Nc1cc(-c2[nH]c3cccnc3c2-c2cccc(F)n2)ccn1)C(CC(F)F)c1ccc(F)cc1 (single isomer, unassigned; (+)) [Example 27, (+)-4,4-difluoro-2-(4-fluorophenyl)-N-{4-[3-(6-fluoropyridin-2-yl)-1H-pyrrolo[3,2-b]pyridin-2-yl]pyridin-2-yl}butanamide] | 1.55 |  | > 20000
COc1cc(F)nc2c(-c3ccccn3)c(-c3ccnc(NC(=O)C(CC(F)F)c4ccc(F)cc4)c3)[nH]c12 (single isomer, unassigned; (+)) [Example 40, (+)-4,4-difluoro-N-{4-[5-fluoro-7-methoxy-3-(pyridin-2-yl)-1H-pyrrolo[3,2-b]pyridin-2-yl]pyridin-2-yl}-2-(4-fluorophenyl)butanamide] | 3.69 | > 20000 | 
O=C(Nc1cc(-c2[nH]c3ccc(F)nc3c2-c2ccc(F)cn2)ccn1)C(CC(F)F)c1ccc(F)cc1 (single isomer, unassigned; (+)) [Example 109, (+)-4,4-difluoro-N-{4-[5-fluoro-3-(5-fluoropyridin-2-yl)-1H-pyrrolo[3,2-b]pyridin-2-yl]pyridin-2-yl}-2-(4-fluorophenyl)butanamide] | 3.14 | > 20000 | 
O=C(Nc1cc(-c2[nH]c3cccnc3c2-c2ccccn2)ccn1)C(CC(F)F)c1ccc(F)cc1 (single isomer, unassigned; (-)) [Example 12, (−)-4,4-difluoro-2-(4-fluorophenyl)-N-{4-[3-(pyridin-2-yl)-1H-pyrrolo[3,2-b]pyridin-2-yl]pyridin-2-yl}butanamide] | 4.45 |  | > 20000
O=C(Nc1cc(-c2[nH]c3cncnc3c2-c2ccccn2)ccn1)C(CC(F)F)c1ccc(F)cc1 (single isomer, unassigned; (-)) [Example 14, (−)-4,4-difluoro-2-(4-fluorophenyl)-N-{4-[7-(pyridin-2-yl)-5H-pyrrolo[3,2-d]pyrimidin-6-yl]pyridin-2-yl}butanamide] | 16.4 | > 20000 | 
O=C(Nc1cc(-c2[nH]c3cc(F)cnc3c2-c2ccccn2)ccn1)C(CC(F)F)c1ccc(F)cc1 (single isomer, unassigned; (-)) [Example 18, (−)-4,4-difluoro-2-(4-fluorophenyl)-N-{4-[6-fluoro-3-(pyridin-2-yl)-1H-pyrrolo[3,2-b]pyridin-2-yl]pyridin-2-yl}butanamide] | 16.2 |  | > 20000
O=C(Nc1cc(-c2[nH]c3cc(F)cnc3c2-c2ccccc2)ccn1)C(CC(F)F)c1ccc(F)cc1 (single isomer, unassigned; (-)) [Example 20, (−)-4,4-difluoro-2-(4-fluorophenyl)-N-[4-(6-fluoro-3-phenyl-1H-pyrrolo[3,2-b]pyridin-2-yl)pyridin-2-yl]butanamide] | 132 | > 20000 | 
O=C(Nc1cc(-c2[nH]c3cccnc3c2-c2ccccc2)ccn1)C(CC(F)F)c1ccc(F)cc1 (single isomer, unassigned; (-)) [Example 23, (−)-4,4-difluoro-2-(4-fluorophenyl)-N-[4-(3-phenyl-1H-pyrrolo[3,2-b]pyridin-2-yl)pyridin-2-yl]butanamide] | 33.6 | > 20000 | 
O=C(Nc1cc(-c2[nH]c3cccnc3c2-c2cccc(F)n2)ccn1)C(CC(F)F)c1ccc(F)cc1 (single isomer, unassigned; (-)) [Example 26, (−)-4,4-difluoro-2-(4-fluorophenyl)-N-{4-[3-(6-fluoropyridin-2-yl)-1H-pyrrolo[3,2-b]pyridin-2-yl]pyridin-2-yl}butanamide] | 15.8 | > 20000 | 
Cc1cc(F)nc2c(-c3ccccn3)c(-c3ccnc(NC(=O)C(CC(F)F)c4ccc(F)cc4)c3)[nH]c12 (single isomer, unassigned; (-)) [Example 38, (−)-4,4-difluoro-N-{4-[5-fluoro-7-methyl-3-(pyridin-2-yl)-1H-pyrrolo[3,2-b]pyridin-2-yl]pyridin-2-yl}-2-(4-fluorophenyl)butanamide] | 2.26 | > 20000 | 
COc1cc(F)nc2c(-c3ccccn3)c(-c3ccnc(NC(=O)C(CC(F)F)c4ccc(F)cc4)c3)[nH]c12 (single isomer, unassigned; (-)) [Example 41, (−)-4,4-difluoro-N-{4-[5-fluoro-7-methoxy-3-(pyridin-2-yl)-1H-pyrrolo[3,2-b]pyridin-2-yl]pyridin-2-yl}-2-(4-fluorophenyl)butanamide] | 3.37 |  | > 20000
O=C(Nc1cc(-c2[nH]c3ccc(F)nc3c2-c2ccc(F)cn2)ccn1)C(CC(F)F)c1ccc(F)cc1 (single isomer, unassigned; (-)) [Example 110, (−)-4,4-difluoro-N-{4-[5-fluoro-3-(5-fluoropyridin-2-yl)-1H-pyrrolo[3,2-b]pyridin-2-yl]pyridin-2-yl}-2-(4-fluorophenyl)butanamide] | 47.6 |  | > 20000
O=C(Nc1cc(-c2[nH]c3c(OC4CC4)cc(F)nc3c2-c2ccccn2)ccn1)C(CC(F)F)c1ccc(F)cc1 (stereo not shown) [Example 45] | 22.3 | > 20000 | 
COc1cnc2c(-c3ccccn3)c(-c3ccnc(NC(=O)C(CC(F)F)c4ccc(F)cc4)c3)[nH]c2n1 (stereo not shown) [Example 101, 4,4-difluoro-2-(4-fluorophenyl)-N-{4-[3-methoxy-7-(pyridin-2-yl)-5H-pyrrolo[2,3-b]pyrazin-6-yl]pyridin-2-yl}butanamide] | 4.82 | > 20000 | 
O=C(Nc1cc(-c2[nH]c3cccnc3c2-c2ccccn2)ccn1)C(CCO)c1ccc(F)cc1 (stereo not shown) [Example 104, 2-(4-fluorophenyl)-4-hydroxy-N-(4-(3-(pyridin-2-yl)-1H-pyrrolo[3,2-b]pyridin-2-yl)pyridin-2-yl)-butanamide] | 6.29 | > 20000 | 
O=C(Nc1cc(-c2[nH]c3nc(OC(F)F)cnc3c2-c2ccccn2)ccn1)C(CC(F)F)c1ccc(F)cc1 (stereo not shown) [Example 105, N-{4-[3-(difluoromethoxy)-7-(pyridin-2-yl)-5H-pyrrolo[2,3-b]pyrazin-6-yl]pyridin-2-yl}-4,4-difluoro-2-(4-fluorophenyl)butanamide] | 10.9 | > 20000 | 
COc1ncnc2c(-c3ccccn3)c(-c3ccnc(NC(=O)C(CC(F)F)c4ccc(F)cc4)c3)[nH]c12 (stereo not shown) [Example 113, 4,4-difluoro-2-(4-fluorophenyl)-N-{4-[4-methoxy-7-(pyridin-2-yl)-5H-pyrrolo[3,2-d]pyrimidin-6-yl]pyridin-2-yl}butanamide] | 3.74 | > 20000 | 
